Results from paper PMC5405701 (ChemMedChem, 2017).
Like-named read-outs stand apart in the source and are kept apart here.

Assays:
[1] = system: MCF-7 breast cancer cells; assay: antiproliferative activity, MTT assay, MCF-7; details: Homo sapiens, MCF7, 72 h, read-out: MCF-7 Inhibition (%)
ERα = ERα (Homo sapiens, UniProt P03372); assay: cell-based; format: cell-based; details: for Agonist Mode ERα Eff (%E2): maximal response as percentage of response to 10^−8 M E2, HEK293T; for transcriptional activity profile on ERα: reporter gene assay
ERα, sequence (P03372 whole entry): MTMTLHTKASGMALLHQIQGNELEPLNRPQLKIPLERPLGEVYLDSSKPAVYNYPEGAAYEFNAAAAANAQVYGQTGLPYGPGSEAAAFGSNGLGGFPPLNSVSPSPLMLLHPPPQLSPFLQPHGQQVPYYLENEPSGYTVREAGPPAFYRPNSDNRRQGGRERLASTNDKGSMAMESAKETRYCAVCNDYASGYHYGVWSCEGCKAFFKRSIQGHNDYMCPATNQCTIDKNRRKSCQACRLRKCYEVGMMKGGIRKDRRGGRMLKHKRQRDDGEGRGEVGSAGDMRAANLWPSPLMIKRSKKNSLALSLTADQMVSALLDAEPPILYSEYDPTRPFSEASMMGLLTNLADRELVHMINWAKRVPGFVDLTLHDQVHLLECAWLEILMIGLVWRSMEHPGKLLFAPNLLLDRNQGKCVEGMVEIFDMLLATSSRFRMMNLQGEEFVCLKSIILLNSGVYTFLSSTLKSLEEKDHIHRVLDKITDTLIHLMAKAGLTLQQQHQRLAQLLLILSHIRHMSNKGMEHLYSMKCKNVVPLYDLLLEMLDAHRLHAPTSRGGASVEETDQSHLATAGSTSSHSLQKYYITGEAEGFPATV

ERβ = ERβ (Homo sapiens, UniProt Q92731); assay: cell-based; format: cell-based; details: for Emax: HEK-293T, 24 h, read-out: Agonist Mode ERβ Eff (%E2); for transcriptional activity profile on ERβ: reporter gene assay, HEK293T
ERβ, sequence (Q92731 whole entry, the tested form may be a part): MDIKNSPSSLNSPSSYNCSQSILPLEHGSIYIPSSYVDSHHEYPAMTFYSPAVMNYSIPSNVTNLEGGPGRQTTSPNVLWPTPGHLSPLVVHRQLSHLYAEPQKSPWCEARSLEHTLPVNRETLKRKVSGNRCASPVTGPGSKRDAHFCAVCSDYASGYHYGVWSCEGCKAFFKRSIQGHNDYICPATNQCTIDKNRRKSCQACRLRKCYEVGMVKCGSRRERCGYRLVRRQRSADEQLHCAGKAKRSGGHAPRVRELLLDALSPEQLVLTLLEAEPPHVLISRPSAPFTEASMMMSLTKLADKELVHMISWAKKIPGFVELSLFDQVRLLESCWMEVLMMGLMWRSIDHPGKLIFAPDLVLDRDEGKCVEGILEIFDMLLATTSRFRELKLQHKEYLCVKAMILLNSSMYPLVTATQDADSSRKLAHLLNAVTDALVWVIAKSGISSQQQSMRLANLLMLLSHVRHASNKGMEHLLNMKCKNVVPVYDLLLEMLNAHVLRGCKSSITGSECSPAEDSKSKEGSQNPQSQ

[2] = molecular target: human ERβ ligand binding domain (LBD) (Homo sapiens, UniProt Q92731); assay: competitive fluorometric; details: for β/α: ratio of RBA ERβ to RBA ERα
human ERβ ligand binding domain (LBD), sequence (Q92731 264-498 limits assumed): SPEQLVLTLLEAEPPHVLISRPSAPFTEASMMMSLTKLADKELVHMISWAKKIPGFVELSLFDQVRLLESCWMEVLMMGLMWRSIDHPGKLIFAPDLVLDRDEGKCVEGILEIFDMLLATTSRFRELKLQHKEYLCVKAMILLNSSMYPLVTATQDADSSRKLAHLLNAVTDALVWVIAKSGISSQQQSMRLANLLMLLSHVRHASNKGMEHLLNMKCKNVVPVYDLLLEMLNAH

[3] = molecular target: T1, human ERα ligand binding domain (LBD) (Homo sapiens, UniProt P03372); assay: competitive fluorometric; details: relative to parent 2a (compared to 2a and 4a)
T1 sequence (P03372 311-547 limits assumed): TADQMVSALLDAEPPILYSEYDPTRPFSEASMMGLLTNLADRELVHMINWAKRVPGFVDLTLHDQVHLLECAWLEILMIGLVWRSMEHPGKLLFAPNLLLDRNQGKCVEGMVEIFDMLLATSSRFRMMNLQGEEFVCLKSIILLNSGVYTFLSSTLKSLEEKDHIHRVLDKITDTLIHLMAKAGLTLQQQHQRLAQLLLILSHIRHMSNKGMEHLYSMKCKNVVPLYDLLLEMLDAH

VERO cells = assay: toxicity to normal cells, MTT assay, VERO

SMILES: Cc1cc(-c2ccc(-c3ccc(O)c(C)c3)[se]2)ccc1O [Compound 2c, 2,5-Bis(4-hydroxy-3-methylphenyl)selenophene]
- inhibition at 10 µM [1]: 9.3%
- Agonist Mode ERα Eff (%E2) (ERα): 33 ± 6 %E2
- transcriptional activity profile on ERα (ERα; HEK293T): inactive
- Emax (ERβ): 24 ± 3%
- transcriptional activity profile on ERβ (ERβ): inactive
- β/α [2]: >94

SMILES: Cc1cc(O)ccc1-c1cc(Br)c(-c2ccc(O)cc2C)[se]1 [Compound 6b, 3-Bromo-2,5-bis(4-hydroxy-2-methylphenyl)selenophene]
- inhibition at 10 µM [1]: 2.5%
- EC50 (ERα): 790 nM
- Agonist Mode ERα Eff (%E2) (ERα): 21 ± 5 %E2
- EC50 (ERβ): 9 nM
- Emax (ERβ): 69 ± 9%
- transcriptional activity profile on ERβ (ERβ): antagonist
- fold increase in binding affinity for ERα over 2a [3]: more than 23 fold
- β/α [2]: 0.74

SMILES: Oc1ccc(-c2ccc(-c3ccc(O)cc3Cl)[se]2)c(Cl)c1 [Compound 2g, 2,5-Bis(2-chloro-4-hydroxyphenyl)selenophene]
- inhibition at 10 µM [1]: 19.6%
- Agonist Mode ERα Eff (%E2) (ERα): 44 ± 13 %E2
- EC50 (ERα; read-out: Agonist Mode ERα EC50, compound alone up to 10^−5 M, HEK293T): 1280 nM
- Emax (ERβ): 14 ± 5%
- β/α [2]: 2.07

SMILES: Oc1ccc(-c2cc(Br)c(-c3ccc(O)c(Cl)c3)[se]2)cc1Cl [Compound 6e, 3-Bromo-2,5-bis(3-chloro-4-hydroxyphenyl)selenophene]
- inhibition at 10 µM [1]: 11.3%
- Agonist Mode ERα Eff (%E2) (ERα): −23 ± 3 %E2
- Emax (ERβ): 27 ± 2%
- β/α [2]: 0.25

SMILES: Cc1cc(-c2c[se]cc2-c2ccc(O)c(C)c2)ccc1O [Compound 4c, 3,4-Bis(4-hydroxy-3-methylphenyl)selenophene]
- inhibition at 10 µM [1]: 0%
- EC50 (ERα): 320 nM
- Agonist Mode ERα Eff (%E2) (ERα): 32 ± 8 %E2
- EC50 (ERβ): 1150 nM
- Emax (ERβ): 54 ± 10%
- β/α [2]: 0.87

SMILES: Oc1ccc(-c2ccc(-c3ccc(O)c(Cl)c3)[se]2)cc1Cl [Compound 2h, 2,5-Bis(3-chloro-4-hydroxyphenyl)selenophene]
- inhibition at 10 µM [1]: 5.3%
- EC50 (ERα): 40 nM
- Agonist Mode ERα Eff (%E2) (ERα): 49 ± 3 %E2
- transcriptional activity profile on ERα (ERα; HEK293T): partial agonist
- Emax (ERβ): 22 ± 8%
- β/α [2]: 5.10

SMILES: Cc1cc(-c2cc(Br)c(-c3cc(C)c(O)c(C)c3)[se]2)cc(C)c1O [Compound 6d, 3-Bromo-2,5-bis(4-hydroxy-3,5-dimethylphenyl)selenophene]
- inhibition at 10 µM [1]: 26.5%
- Agonist Mode ERα Eff (%E2) (ERα): 16 ± 4 %E2
- Emax (ERβ): 15 ± 6%
- β/α [2]: 0.43

SMILES: Cc1cc(-c2cc(Br)c(-c3ccc(O)c(C)c3)[se]2)ccc1O [Compound 6c, 3-Bromo-2,5-bis(4-hydroxy-3-methylphenyl)selenophene]
- inhibition at 10 µM [1]: 26.1%
- Agonist Mode ERα Eff (%E2) (ERα): −3 ± 1 %E2
- EC50 (ERβ): 441 nM
- Emax (ERβ): 46 ± 1%
- β/α [2]: 4.40

SMILES: Oc1ccc(-c2c[se]cc2-c2ccc(O)cc2)cc1 [Compound 4a, 3,4-Bis(4-hydroxyphenyl)selenophene]
- inhibition at 10 µM [1]: 0%
- Agonist Mode ERα Eff (%E2) (ERα): 7 ± 3 %E2
- Emax (ERβ): 16 ± 7%
- transcriptional activity profile on ERβ (ERβ): antagonist
- β/α [2]: 6.28

SMILES: Cc1cc(O)cc(C)c1-c1ccc(-c2c(C)cc(O)cc2C)[se]1 [Compound 2e, 2,5-Bis(4-hydroxy-2,6-dimethylphenyl)selenophene]
- inhibition at 10 µM [1]: 19.3%
- Agonist Mode ERα Eff (%E2) (ERα): −7 ± 3 %E2
- EC50 (ERβ): 434 nM
- Emax (ERβ): 60 ± 4%
- β/α [2]: 1.00

SMILES: Oc1cc(-c2ccc(-c3ccc(F)c(O)c3)[se]2)ccc1F [Compound 2j, 2,5-Bis(4-fluoro-5-hydroxyphenyl)selenophene]
- inhibition at 10 µM [1]: 4.4%
- Agonist Mode ERα Eff (%E2) (ERα): 25 ± 8 %E2
- EC50 (ERβ): 150 nM
- Emax (ERβ): 42 ± 10%
- transcriptional activity profile on ERβ (ERβ): partial agonist
- β/α [2]: 3.37

SMILES: Oc1ccc(-c2c[se]cc2-c2ccc(O)c(F)c2)cc1F [Compound 4d, 3,4-Bis(3-fluoro-4-hydroxyphenyl)selenophene]
- inhibition at 10 µM [1]: 0%
- Agonist Mode ERα Eff (%E2) (ERα): 21 ± 6 %E2
- Emax (ERβ): 21 ± 3%
- β/α [2]: 2.67

SMILES: Oc1ccc(-c2cc(-c3ccc(O)cc3)c(-c3ccc(O)cc3)[se]2)cc1 [Compound 8a, 2,3,5-Tris(4-hydroxyphenyl)selenophene]
- inhibition at 10 µM [1]: 29.6%
- Agonist Mode ERα Eff (%E2) (ERα): −4 ± 3 %E2
- transcriptional activity profile on ERα (ERα; HEK293T): antagonist
- Emax (ERβ): 12 ± 3%
- transcriptional activity profile on ERβ (ERβ): antagonist
- β/α [2]: 1.15

SMILES: Oc1ccc(F)c(-c2ccc(-c3cc(O)ccc3F)[se]2)c1 [Compound 2i, 2,5-Bis(2-fluoro-5-hydroxyphenyl)selenophene]
- inhibition at 10 µM [1]: 17.9%
- Agonist Mode ERα Eff (%E2) (ERα): 25 ± 8 %E2
- EC50 (ERβ): 130 nM
- Emax (ERβ): 55 ± 5%
- transcriptional activity profile on ERβ (ERβ): partial agonist
- β/α [2]: 0.90

SMILES: Cc1cc(O)ccc1-c1c[se]cc1-c1ccc(O)cc1C [Compound 4b, 3,4-Bis(4-hydroxy-2-methylphenyl)selenophene]
- inhibition at 10 µM [1]: 0%
- Agonist Mode ERα Eff (%E2) (ERα): 19 ± 4 %E2
- EC50 (ERβ): 34 nM
- Emax (ERβ): 62 ± 8%
- β/α [2]: 24.81

SMILES: Cc1cc(-c2cc(-c3ccc(O)c(C)c3)c(-c3ccc(O)c(C)c3)[se]2)ccc1O [Compound 8b, 2,3,5-Tris(4-hydroxy-3-methylphenyl)selenophene]
- inhibition at 10 µM [1]: 16.6%
- EC50 (ERα): 320 nM
- Agonist Mode ERα Eff (%E2) (ERα): 112 ± 29 %E2
- transcriptional activity profile on ERα (ERα; HEK293T): superagonists
- EC50 (ERβ): 33 nM
- Emax (ERβ): 77 ± 8%
- β/α [2]: 9.92

SMILES: Cc1cc(-c2ccc(-c3cc(C)c(O)c(C)c3)[se]2)cc(C)c1O [Compound 2d, 2,5-Bis(4-hydroxy-3,5-dimethylphenyl)selenophene]
- inhibition at 10 µM [1]: 0%
- Agonist Mode ERα Eff (%E2) (ERα): 12 ± 4 %E2
- transcriptional activity profile on ERα (ERα; HEK293T): inactive
- Emax (ERβ): 38 ± 6%
- transcriptional activity profile on ERβ (ERβ): inactive
- β/α [2]: >121

SMILES: Oc1ccc(-c2ccc(-c3ccc(O)cc3)[se]2)cc1 [Compound 2a, 2,5-Bis(4-hydroxyphenyl)selenophene]
- inhibition at 10 µM [1]: 0%
- Agonist Mode ERα Eff (%E2) (ERα): 16 ± 2 %E2
- transcriptional activity profile on ERα (ERα; HEK293T): partial antagonist
- Emax (ERβ): 11 ± 4%
- transcriptional activity profile on ERβ (ERβ): partial antagonist
- β/α [2]: 4.70

SMILES: CC/C(=C(\c1ccc(O)cc1)c1ccc(OCCN(C)C)cc1)c1ccccc1 [Compound 4OHT, 4-hydroxytamoxifen, reference compound]
- inhibition at 10 µM [1]: 81.7%
- Agonist Mode ERβ Eff (%E2) (ERβ): −1 ± 1 %E2
- Antagonist Mode ERβ Eff (%E2) (ERβ): −20 ± 2 %E2
- toxicity to healthy VERO cells (VERO cells): considerable toxicity

SMILES: Oc1cc(-c2cc(Br)c(-c3ccc(F)c(O)c3)[se]2)ccc1F [Compound 6f, 3-Bromo-2,5-bis(4-fluoro-5-hydroxyphenyl)selenophene]
- inhibition at 10 µM [1]: 0%
- EC50 (ERα): 120 nM
- efficacy on ERα, times greater than that of estradiol (ERα; agonist mode): 2.2 times
- Agonist Mode ERα Eff (%E2) (ERα): 226 ± 28 %E2
- transcriptional activity profile on ERα (ERα; HEK293T): superagonist
- EC50 (ERβ): 300 nM
- Emax (ERβ): 31 ± 7%
- β/α [2]: 0.28

SMILES: Oc1ccc(-c2c[se]cc2-c2ccc(O)cc2F)c(F)c1 [Compound 4e, 3,4-Bis(2-fluoro-4-hydroxyphenyl)selenophene]
- inhibition at 10 µM [1]: 0%
- Agonist Mode ERα Eff (%E2) (ERα): 35 ± 5 %E2
- Emax (ERβ): 17 ± 2%
- β/α [2]: 2.19

SMILES: Cc1cc(-c2cc(-c3cc(C)c(O)c(C)c3)c(-c3cc(C)c(O)c(C)c3)[se]2)cc(C)c1O [Compound 8c, 2,3,5-Tris(4-hydroxy-3,5-dimethylphenyl)selenophene]
- inhibition at 10 µM [1]: 75.3%
- EC50 (ERα): 270 nM
- Agonist Mode ERα Eff (%E2) (ERα): 74 ± 4 %E2
- EC50 (ERβ): 17 nM
- Emax (ERβ): 69 ± 5%
- β/α [2]: 0.55
- toxicity to healthy VERO cells (VERO cells): nontoxic

SMILES: Oc1ccc(-c2ccc(-c3ccc(O)cc3F)[se]2)c(F)c1 [Compound 2f, 2,5-Bis(2-fluoro-4-hydroxyphenyl)selenophene]
- inhibition at 10 µM [1]: 10.5%
- EC50 (ERα): 230 nM
- ERα agonist potency, fold more potent than 2b (ERα; agonist mode, relative to 2b): about 6 fold
- Agonist Mode ERα Eff (%E2) (ERα): 68 ± 2 %E2
- transcriptional activity profile on ERα (ERα; HEK293T): full ERα agonist
- EC50 (ERβ): 170 nM
- Emax (ERβ): 71 ± 1%
- β/α [2]: 4.11
- fold better binding to ERβ than 2a ([2]; relative to 2a): 8 fold

SMILES: Cc1cc(O)ccc1-c1ccc(-c2ccc(O)cc2C)[se]1 [Compound 2b, 2,5-Bis(4-hydroxy-2-methylphenyl)selenophene]
- inhibition at 10 µM [1]: 3.4%
- EC50 (ERα): 1360 nM
- efficacy on ERα, times greater than that of estradiol (ERα; agonist mode): 1.5 times
- Agonist Mode ERα Eff (%E2) (ERα): 157 ± 12 %E2
- transcriptional activity profile on ERα (ERα; HEK293T): superagonist
- EC50 (ERβ): 79 nM
- Emax (ERβ): 82 ± 7%
- transcriptional activity profile on ERβ (ERβ): agonist
- β/α [2]: 1.98

SMILES: Oc1ccc(-c2cc(Br)c(-c3ccc(O)cc3F)[se]2)c(F)c1 [Compound 6g, 3-Bromo-2,5-bis(2-fluoro-4-hydroxyphenyl)selenophene]
- inhibition at 10 µM [1]: 8.1%
- Agonist Mode ERα Eff (%E2) (ERα): 73 ± 9 %E2
- Emax (ERβ): 50 ± 3%
- β/α [2]: 1.30
